Values of other authors in patent publication US10821185B2, “Triglyceride otic formulations and uses thereof” (Otonomy, Inc., priority 2016, dated 2020).
Where a name gives a salt, the structure may show the parent alone.

Experiments:
[1] = molecular target: D136A mutant VP2 receptor (Homo sapiens, UniProt P30518, D136A)
V2-R = details: infusion into the scala tympani
[2] = after topical application
[3] = tested on: mouse collagen-induced arthritis model; details: 30 mg/kg dose
[4] = tested on: LPS-induced human PBMC cells; details: read-out: IC50 for inhibiting TNF-α production
tinnitus = details: administered by IV
[5] = tested on: LPS-induced MonoMac-6 cells; details: read-out: IC50 for inhibiting TNF-α production
TNF-α = details: LPS-challenged mice
rat arthritis model = details: 30 mg/kg
[6] = systemic administration
[7] = systemically treated

In the case of Cc1ccccc1C(=O)Nc1ccc(C(=O)N2CCCC(N(C)C)c3ccccc32)cc1 (racemic) [OPC-31260, (±)-5-dimethylamino-1-(4-[2-methylbenzoylamino]benzoyl)-2,3,4,5-tetrahydro-1H-benzazepin hydrochloride], the “behaviour at constitutively activated D136A mutant VP2 receptor” value [1] is listed as “inverse agonist” and the “Meniere's disease symptoms” value (V2-R) is listed as “marked reduction of Meniere's disease symptoms”.

For C=CC[C@@H]1/C=C(\C)C[C@H](C)C[C@H](OC)[C@H]2O[C@@](O)(C(=O)C(=O)N3CCCC[C@H]3C(=O)O[C@H](/C(C)=C/[C@@H]3CC[C@@H](O)[C@H](OC)C3)[C@H](C)[C@@H](O)CC1=O)[C@H](C)C[C@@H]2OC (relative stereo) [tacrolimus, [3S-[3R*[E(1S*,3S*,4S*)], 4S*,5R*,8S*,9E,12R*,14R*,15S*,16R*,18S*,19S*,26aR*]]-5,6,8,11,12,13,14,15,16,17,18,19,24,25,26,26a-hexadecahydro-5,19-dihydroxy-3-[2-(4-hydroxy-3-methoxycyclohexyl)-1-methylethenyl]-14,16-dimethoxy-4,10,12,18-tetramethyl-8-(2-propenyl)-15,19-epoxy-3H-pyrido[2,1-39c][1,4]oxaazacyclotricosine-1,7,20,21(4H,23H)-tetrone monohydrate], the bioavailability [2] is given as “less than 0.5%”.

In the case of Cc1ccc2nc(NCCN)c3ncc(C)n3c2c1 [BMS-345541], the severity of disease [3] is given as “significantly reduced the severity of disease”.

For CC[C@H](C)[C@H](NC(=O)[C@H](CC(C)C)[C@H](C(C)C)N(O)C=O)C(=O)Nc1ccccn1 [GW3333], the IC50 [4] is listed as 970 nM.

In the case of CCN(CC)CC(=O)Nc1c(C)cccc1C [Lidocaine], the “sufferers in whom the noise associated with tinnitus is reduced or eliminated” value (tinnitus) is listed as 60-80%.

For CC(C)C[C@@H](C(=O)N[C@@H](CCCN/C(N)=N/[N+](=O)[O-])C(=O)Nc1nccs1)[C@H](C(C)C)N(O)C=O [Nitroarginine analog A], the IC50 [5] is listed as 34 nM.

In the case of O=C(Nc1cc(Cl)cc2c1[nH]c1cnccc12)c1cccnc1 [PS-1145], the “production of TNF-α” value (TNF-α) is given as “reduces the production of TNF-α”.

For COc1cccc2nc(-c3cccs3)nc(NN3C(=O)C=C(C)C3=O)c12 [SPC-839], the paw edema (rat arthritis model) is given as “reduces paw edema”.

For CCOc1ccc2c(c1)C1(CCC(OCCN3CCOCC3)CC1)C(=O)N2S(=O)(=O)c1ccc(C(=O)NC(C)(C)C)cc1OC (stereo not drawn) [SR-1211463, 1-(4-(N-tert-butylcarbamoyl)-2-methoxybenzenesulfonyl)-5-ethoxy-3-spiro-(4-(2-morpholinoethoxy)cyclohexane)indol-2-one fumarate], the “behaviour at constitutively activated D136A mutant VP2 receptor” value [1] is given as “inverse agonist”.

In the case of adalimumab, the “patients developing injection site reactions (erythema and/or itching, hemorrhage, pain and/or swelling)” value [6] is given as 20%.

For etanercept, the “patients experiencing injection site reactions” value [7] is listed as “over one-third of patients”.
